This passage reports IC50 results from patent US20060264460A1 (Wyeth, priority 2005, published 2006).

In the first experiment the target is T1, human Cot/Tpl2 kinase (Homo sapiens, UniProt P41279).
T1 construct: human Cot/Tpl2 kinase construct encoding residues 30-398; 6His (N); made in house; host or cells: Sf9 insect cells, baculovirus system (BD Biosciences)
T1 sequence (P41279 30-398): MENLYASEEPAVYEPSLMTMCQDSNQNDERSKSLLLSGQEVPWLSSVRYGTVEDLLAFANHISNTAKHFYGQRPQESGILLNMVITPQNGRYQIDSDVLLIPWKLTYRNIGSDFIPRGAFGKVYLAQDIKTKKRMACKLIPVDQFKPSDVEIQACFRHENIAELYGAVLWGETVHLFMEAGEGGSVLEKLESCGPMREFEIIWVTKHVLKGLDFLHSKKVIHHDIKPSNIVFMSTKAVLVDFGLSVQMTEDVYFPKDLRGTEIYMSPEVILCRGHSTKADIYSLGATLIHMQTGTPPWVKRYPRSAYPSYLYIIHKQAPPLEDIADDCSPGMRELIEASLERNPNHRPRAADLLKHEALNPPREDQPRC
In words: Tpl2/Cot kinase assay: GST-MEK1 phosphorylation detected by ELISA (DELFIA Eu). The conditions noted are these: Table 2; Tpl2/Cot kinase, GST-MEK1 substrate, 50 uM ATP. The format is biochemical. In short, it runs like this: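 His-tagged human Tpl2 from Sf9 cells, Ni-affinity and size-exclusion purified (monomer). 0.4 nM Tpl2 with 35 nM GST-MEK1, 50 uM ATP, MOPS pH 7.2, 1% DMSO, 1 h at 30° C; EDTA stop. MEK1 Ser217/221 phosphorylation detected by anti-phospho-MEK1 and Eu-labelled secondary ELISA; IC50 fitted.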
`N#Cc1cnc2c(Cl)cc(NCc3cn(CCCN4CCNCC4)nn3)cc2c1Nc1ccc(F)c(Cl)c1` [Example 597] yielded an IC50 of 160 nM.
Regarding `N#Cc1cnc2c(Cl)cc(NCC(=O)NCc3cccnc3)cc2c1Nc1ccc(F)c(Cl)c1` [Example 598], the IC50 worked out at 200 nM.
Compound `N#Cc1cnc2c(Cl)cc(NCc3cn(CCOC(N)=O)nn3)cc2c1Nc1ccc(F)c(Cl)c1` [Example 599] registered an IC50 of 5.9 nM.
Still for that read-out and setting: then `N#Cc1cnc2c(Cl)cc(NCC(=O)NCc3ccncc3)cc2c1Nc1ccc(F)c(Cl)c1` [Example 600], with 48 nM; and `N#Cc1cnc2c(Cl)cc(NCC(=O)Nc3cccnc3)cc2c1Nc1ccc(F)c(Cl)c1` [Example 601], with 110 nM.
On the same count and under the same terms, the figure for `N#Cc1cnc2c(Cl)cc(NCC(=O)Nc3ccncc3)cc2c1Nc1ccc(F)c(Cl)c1` [Example 602] is 2400 nM.
Consider `CN(C)CCCNC(=O)CNc1cc(Cl)c2ncc(C#N)c(Nc3ccc(F)c(Cl)c3)c2c1` [Example 603], for which the IC50 is more than 3000 nM.
On the same count and under the same terms, the figure for `N#Cc1cnc2c(Cl)cc(NCC(=O)NCCCN3CCOCC3)cc2c1Nc1ccc(F)c(Cl)c1` [Example 604] is more than 3000 nM; for `CN(C)CCNC(=O)CNc1cc(Cl)c2ncc(C#N)c(Nc3ccc(F)c(Cl)c3)c2c1` [Example 605] it is 1600 nM.
Take `COCCCNC(=O)CNc1cc(Cl)c2ncc(C#N)c(Nc3ccc(F)c(Cl)c3)c2c1` [Example 606]: the IC50 came out at 230 nM.
On the same count and under the same terms, the figure for `N#Cc1cnc2c(Cl)cc(NCC(=O)NCc3ccccn3)cc2c1Nc1ccc(F)c(Cl)c1` [Example 607] is 330 nM.
The same measure, in the same setting: then `N#Cc1cnc2c(Cl)cc(NCC(=O)NCCN3CCOCC3)cc2c1Nc1ccc(F)c(Cl)c1` [Example 608], with 530 nM; and `CN(CCCn1cc(CNc2cc(Cl)c3ncc(C#N)c(Nc4ccc(F)c(Cl)c4)c3c2)nn1)C1CCCCC1` [Example 609], with 1.8 nM.
The same measure, in the same setting: the figure for `CC1CC(C)CN(CCCn2cc(CNc3cc(Cl)c4ncc(C#N)c(Nc5ccc(F)c(Cl)c5)c4c3)nn2)C1` (centres unmarked) [Example 610] is 150 nM; for `CN(Cc1cn(C)cn1)c1cc(Br)c2ncc(C#N)c(Nc3ccc(F)c(Cl)c3)c2c1` [Example 611] it is more than 3000 nM; for `CN1CCCC1CCNC(=O)CNc1cc(Cl)c2ncc(C#N)c(Nc3ccc(F)c(Cl)c3)c2c1` (centres unmarked) [Example 612] it is more than 3000 nM.
Compound `CN(C)C(=O)Cn1cc(CNc2cc(Cl)c3ncc(C#N)c(Nc4ccc(F)c(Cl)c4)c3c2)nn1` [Example 613] came in with an IC50 of 0.54 nM.
Same read-out and setting: then `CN(C)C(=O)CCn1cc(CNc2cc(Cl)c3ncc(C#N)c(Nc4ccc(F)c(Cl)c4)c3c2)nn1` [Example 614], with 10 nM; and `CN1CC(CCn2cc(CNc3cc(Cl)c4ncc(C#N)c(Nc5ccc(F)c(Cl)c5)c4c3)nn2)N(C)C1=O` (centres unmarked) [Example 615], with 6.1 nM.
Same read-out and setting: then `CCN1CC(CCn2cc(CNc3cc(Cl)c4ncc(C#N)c(Nc5ccc(F)c(Cl)c5)c4c3)nn2)N(c2ccccc2)C1=O` (centres unmarked) [Example 616], with 25 nM.
The same measure, in the same setting: the figure for `CCN1CC(CCn2cc(CNc3cc(Cl)c4ncc(C#N)c(Nc5ccc(F)c(Cl)c5)c4c3)nn2)N(c2ccccc2)C1=S` (centres unmarked) [Example 617] is 130 nM; for `CC(C)(C)OC(=O)N1CCC[C@H]1CNc1cc(Cl)c2ncc(C#N)c(Nc3ccc(F)c(Cl)c3)c2c1` [Example 618] it is more than 3000 nM.
The compound `N#Cc1cnc2c(Cl)cc(NC[C@@H]3CCCN3)cc2c1Nc1ccc(F)c(Cl)c1` [Example 619] yielded an IC50 of more than 3000 nM.
With `N#Cc1cnc2c(Br)cc(NCc3cn(Cc4ccccn4)cn3)cc2c1Nc1ccc(F)c(Cl)c1` [Example 620], the IC50 was 34 nM.
The same measure, in the same setting: then `N#Cc1cnc2c(Cl)cc(NCc3cn(Cc4ccccn4)cn3)cc2c1Nc1ccc(F)c(Cl)c1` [Example 621], with 41 nM.
The same measure, in the same setting: the figure for `N#Cc1cnc2c(Cl)cc(NCc3cn(Cc4ccncc4)cn3)cc2c1Nc1ccc(F)c(Cl)c1` [Example 622] is 5.3 nM; for `CCN(C[C@@H]1CCCN1C(=O)OC(C)(C)C)c1cc(Cl)c2ncc(C#N)c(Nc3ccc(F)c(Cl)c3)c2c1` [Example 623] it is more than 3000 nM; for `CN1CCCN(CCCn2cc(CNc3cc(Br)c4ncc(C#N)c(Nc5ccc(F)c(Cl)c5)c4c3)nn2)CC1` [Example 624] it is 70 nM.
On the same count and under the same terms, then `CN1CCCN(CCCn2cc(CNc3cc(Cl)c4ncc(C#N)c(Nc5ccc(F)c(Cl)c5)c4c3)nn2)CC1` [Example 625], with 48 nM; and `CN1CCN(CCCn2cc(CNc3cc(Br)c4ncc(C#N)c(Nc5ccc(F)c(Cl)c5)c4c3)nn2)CC1` [Example 626], with 29 nM; and `CN1CCN(CCCn2cc(CNc3cc(Cl)c4ncc(C#N)c(Nc5ccc(F)c(Cl)c5)c4c3)nn2)CC1` [Example 627], with 39 nM.
For `N#Cc1cnc2c(Cl)cc(NC3CCCC3Cl)cc2c1Nc1ccc(F)c(Cl)c1` (centres unmarked) [Example 628], the IC50 was more than 3000 nM.
On the same count and under the same terms, the figure for `N#Cc1cnc2c(Cl)cc(NC3CCCC3N=[N+]=[N-])cc2c1Nc1ccc(F)c(Cl)c1` (centres unmarked) [Example 629] is 420 nM; for `N#Cc1cnc2c(Br)cc(NCC(=O)O)cc2c1Nc1ccc(F)c(Cl)c1` [Example 630] it is 140 nM; for `N#Cc1cnc2c(Cl)cc(NCC(O)CO)cc2c1Nc1ccc(F)c(Cl)c1` (centres unmarked) [Example 631] it is 590 nM.
The same measure, in the same setting: the figure for `N#Cc1cnc2c(Br)cc(NCc3cn(C4CCCC4)cn3)cc2c1Nc1ccc(F)c(Cl)c1` [Example 632] is 230 nM; for `CC(C)n1cnc(CNc2cc(Br)c3ncc(C#N)c(Nc4ccc(F)c(Cl)c4)c3c2)c1` [Example 633] it is more than 3000 nM.
Still for that read-out and setting: then `CC(=O)Nc1ccc(-n2cc(CNc3cc(Cl)c4ncc(C#N)c(Nc5ccc(F)c(Cl)c5)c4c3)nn2)cc1` [Example 634], with 35 nM; and `N#Cc1cnc2c(Cl)cc(NC3CCCC3n3cc(CCO)nn3)cc2c1Nc1ccc(F)c(Cl)c1` (centres unmarked) [Example 635], with 67 nM.
`CN(C)Cc1cn(C2CCCC2Nc2cc(Cl)c3ncc(C#N)c(Nc4ccc(F)c(Cl)c4)c3c2)nn1` (centres unmarked) [Example 636] yielded an IC50 of more than 3000 nM.
The same measure, in the same setting: the figure for `N#Cc1cnc2c(Cl)cc(NCC(CO)c3ccncc3)cc2c1Nc1ccc(F)c(Cl)c1` (centres unmarked) [Example 637] is more than 3000 nM; for `N#Cc1cnc2c(Br)cc(NCc3cn(COCc4ccccc4)nn3)cc2c1Nc1ccc(F)c(Cl)c1` [Example 638] it is more than 3000 nM.
The same measure, in the same setting: then `CC(CNc1cc(Cl)c2ncc(C#N)c(Nc3ccc(F)c(Cl)c3)c2c1)c1ccncc1` (centres unmarked) [Example 639], with 200 nM.
The same measure, in the same setting: the figure for `CCN(C[C@@H]1CCCN1)c1cc(Cl)c2ncc(C#N)c(Nc3ccc(F)c(Cl)c3)c2c1` [Example 640] is more than 3000 nM.

Staying with this experiment, now noted: Tpl2/Cot kinase, GST-MEK1 substrate, 50 uM ATP.
Compound `CCN(C[C@@H]1CCCN1C(C)=O)c1cc(Cl)c2ncc(C#N)c(Nc3ccc(F)c(Cl)c3)c2c1` [Example 644] came in with an IC50 of more than 3000 nM.
In turn, `CN(C)CC1CCCCC1Nc1cc(Cl)c2ncc(C#N)c(Nc3ccc(F)c(Cl)c3)c2c1` (centres unmarked) [Example 646] came in with an IC50 of more than 3000 nM.
Turning to `CN1CCCC1CCNC(=O)Cn1cc(CNc2cc(Cl)c3ncc(C#N)c(Nc4ccc(F)c(Cl)c4)c3c2)nn1` (centres unmarked) [Example 651], the IC50 was determined as 6.9 nM.
Same read-out and setting: then `CC(C)(C)OC(=O)N1CCC(Nc2ccc3ncc(C#N)c(Nc4ccc(F)c(Cl)c4)c3c2)CC1` [Example 656], with more than 40000 nM; and `N#Cc1cnc2ccc(NC3CCN(Cc4ccccc4)CC3)cc2c1Nc1ccc(F)c(Cl)c1` [Example 657], with 1700 nM.
Same read-out and setting: the figure for `CC(C)N1CCC(Nc2ccc3ncc(C#N)c(Nc4ccc(F)c(Cl)c4)c3c2)CC1` [Example 658] is 25500 nM; for `CCN1CCC(Nc2ccc3ncc(C#N)c(Nc4ccc(F)c(Cl)c4)c3c2)C(C)C1` (centres unmarked) [Example 659] it is more than 40000 nM; for `CC(=O)Nc1cc(Br)c2ncc(C#N)c(Nc3ccc(F)c(Cl)c3)c2c1` [Example 660] it is 4700 nM.
Consider `N#Cc1cnc2c(Br)cc(NCc3cn(C45CC6CC(CC(C6)C4)C5)nn3)cc2c1Nc1ccc(F)c(Cl)c1` [Example 661], for which the IC50 amounted to 1700 nM.
Same read-out and setting: then `CN(C)CCCn1cc(CNc2cc(Br)c3ncc(C#N)c(Nc4ccc(F)c(Cl)c4)c3c2)nn1` [Example 662], with 20 nM; and `CN(C)CCn1cc(CNc2cc(Br)c3ncc(C#N)c(Nc4ccc(F)c(Cl)c4)c3c2)nn1` [Example 663], with 24 nM; and `Cn1cnc(CNc2cc(Br)c3ncc(C#N)c(Nc4ccc(F)c(Cl)c4)c3c2)n1` [Example 664], with 200 nM.
Compound `N#Cc1cnc2c(Cl)cc(NCc3nc[nH]n3)cc2c1Nc1ccc(F)c(Cl)c1` [Example 666] returned an IC50 of 100 nM.
For `N#Cc1cnc2c(Br)cc(NCc3nc[nH]n3)cc2c1Nc1ccc(F)c(Cl)c1` [Example 667], half-maximal inhibition (IC50) was put at 110 nM.
Still for that read-out and setting: then `N#Cc1cnc2c(Br)cc(NCc3cncn3CCN3CCOCC3)cc2c1Nc1ccc(F)c(Cl)c1` [Example 668], with 160 nM.
On the same count and under the same terms, then `N#Cc1cnc2c(Br)cc(NCc3cn(CCN4CCOCC4)cn3)cc2c1Nc1ccc(F)c(Cl)c1` [Example 669], with 41 nM; and `N#Cc1cnc2c(Cl)cc(NCc3cn(CCN4CCOCC4)cn3)cc2c1Nc1ccc(F)c(Cl)c1` [Example 670], with 33 nM.
`N#Cc1cnc2c(Cl)cc(NCc3cncn3CCN3CCOCC3)cc2c1Nc1ccc(F)c(Cl)c1` [Example 671] came in with an IC50 of 62 nM.
On the same count and under the same terms, the figure for `N#Cc1cnc2c(Br)cc(NCc3cn(CC(F)(F)F)nn3)cc2c1Nc1ccc(F)c(Cl)c1` [Example 673] is 100 nM; for `CC(C)(C)OC(=O)N1CCC(CCn2cc(CNc3cc(Cl)c4ncc(C#N)c(Nc5ccc(F)c(Cl)c5)c4c3)nn2)CC1` [Example 674] it is 75 nM; for `CC(C)(C)OC(=O)N1CCC(CCn2cc(CNc3cc(Br)c4ncc(C#N)c(Nc5ccc(F)c(Cl)c5)c4c3)nn2)CC1` [Example 675] it is 130 nM.

For orientation: IC50 means the concentration that inhibits the measured activity by half.
